In patent US9018208B2, “Heterocycles as potassium channel modulators” (Icagen Inc., priority 2007, dated 2015):
pEC50: −log10 of the molar value.

System: SH-SY5Y M-currents (KCNQ2, KCNQ3 and KCNQ5)
Assay: SH-SY5Y native cell line FLIPR assay (voltage-sensitive dye DiBAC)
Assay type: cell-based, mouse neuroblastoma, rat glioma hybrid cell line
Conditions: FLIPR assay, SH-SY5Y native cell line; Table 1; read-out: SH-SY5Y EC50
Source text: SH-SY5Y cells, a mouse neuroblastoma, rat glioma hybrid cell line, functionally express M-currents (Robbins et al., J. Physiol. 451: 159-85 (1992). SH-SY5Y M-currents are likely comprised, at least in part, of KCNQ2, KCNQ3 and KCNQ5, since these genes are reportedly robustly expressed in differentiated SH-SY5Y cells (Selyanko et al., J. Neurosci. 19(18): 7742-56 (1999); Schroeder et al., J. Biol. Chem. 275(31): 24089-95 (2000)) and KCNQ3 dominant-negative constructs reduce M-current density in these cells (Selyanko et al., J. Neurosci. 22(5): RC212 (2002).
SH-SY5Y were maintained in DMEM (high glucose) supplemented with 10% fetal bovine serum, 0.05 mM pyridoxine, 0.1 mM hypoxanthine, 400 nM aminopterin, […], 50 μgml^−1 gentamycin and 10 mM HEPES, in an incubator at 37° C. with a humidified atmosphere of 5% CO2. Cells were plated in 96 well plates differentiated by addition of 10 μM PGE1 and 50 μM isomethylbutylxanthine to the growth media prior to study.
Differentiated SH-SY5Y cells were loaded with voltage-sensitive dye by incubation in Earls Balanced Salt Solution (EBSS) containing […] DiBAC for 1 h. Following loading, drug solution containing […] DiBAC was added to each well. Changes in fluorescence were measured every 30 s for 25 min. The maximum change in fluorescence was measured and expressed as a percentage of the maximum response obtained in the presence of a positive control agent.

| pEC50 | SMILES |
| --- | --- |
| > 6.30 | Cc1ccc2nc(NC(=O)CC(C)(C)C)c(CC(C)(C)C)n2n1 [Compound 67, 3,3-dimethyl-N-(6-methyl-3-neopentylimidazo[1,2-b]pyridazin-2-yl)butanamide] |
| > 6.30 | CC(C)CCc1c(NC(=O)Cc2ccccc2)nc2ccc(C(F)(F)F)cn12 [Compound 36, N-(3-isopentyl-6-(trifluoromethyl)imidazo[1,2-a]pyridin-2-yl)-2-phenylacetamide] |
| > 6.30 | CC(C)(C)Cc1c(NC(=O)Cc2ccc(OC(F)(F)F)cc2)nc2ccc(C(F)(F)F)cn12 [Compound 26, N-(3-neopentyl-6-(trifluoromethyl)imidazo[1,2-a]pyridin-2-yl)-2-(4-(trifluoromethoxy)phenyl)acetamide] |
| > 6.30 | CC(C)(C)Cc1c(NC(=O)C2CCC(F)(F)CC2)nc2ccc(C(F)(F)F)cn12 [Compound 73, 4,4-difluoro-N-(3-neopentyl-6-(trifluoromethyl)imidazo[1,2-a]pyridin-2-yl)cyclohexanecarboxamide] |
| > 6.30 | O=C(Cc1ccc(F)cc1)Nc1nc2ccc(C(F)(F)F)cn2c1CC1CCCCC1 [Compound 40, N-(3-(cyclohexylmethyl)-6-(trifluoromethyl)imidazo[1,2-a]pyridin-2-yl)-2-(4-fluorophenyl)acetamide] |

Same assay, conditions: FLIPR assay, SH-SY5Y native cell line; Table 2; read-out: SH-SY5Y EC50

| pEC50 | SMILES |
| --- | --- |
| 5.52 to 6.30 | O=C(Cc1ccccc1)Nc1nc2cc(C(F)(F)F)ccn2c1-c1ccc(F)cc1 [Compound 112, N-(3-(4-fluorophenyl)-7-(trifluoromethyl)imidazo[1,2-a]pyridin-2-yl)-2-phenylacetamide] |
| > 6.30 | O=C(Cc1ccc(F)cc1)Nc1nc2ccc(F)cn2c1-c1ccc(F)c(F)c1 [Compound 210, N-(3-(3,4-difluorophenyl)-6-fluoroimidazo[1,2-a]pyridin-2-yl)-2-(4-fluorophenyl)acetamide] |
| 5.00 to 5.52 | CO[C@H](C(=O)Nc1nc2ccc(F)cn2c1-c1ccc(OC(F)(F)F)cc1)c1ccccc1 [Compound 254, (S)—N-(6-fluoro-3-(4-(trifluoromethoxy)phenyl)imidazo[1,2-a]pyridin-2-yl)-2-methoxy-2-phenyl acetamide] |
| > 6.30 | CC(CC(=O)Nc1nc2ccc(F)cn2c1-c1ccc(OC(F)(F)F)c(F)c1)C(F)(F)F (stereo not shown) [Compound 313, 4,4,4-trifluoro-N-(6-fluoro-3-(3-fluoro-4-(trifluoromethoxy)phenyl)imidazo[1,2-a]pyridin-2-yl)-3-methyl butanamide] |
| 5.52 to 6.30 | COc1ccc(CC(=O)Nc2nc3ccc(F)cn3c2-c2ccc(F)cc2)cc1 [Compound 132, N-(6-fluoro-3-(4-fluorophenyl)imidazo[1,2-a]pyridin-2-yl)-2-(4-methoxyphenyl)acetamide] |
| 5.52 to 6.30 | C#CCCCC(=O)Nc1nc2ccc(F)cn2c1-c1ccc(F)cc1 [Compound 151, N-(6-fluoro-3-(4-fluorophenyl)imidazo[1,2-a]pyridin-2-yl)hex-5-ynamide] |
| 5.52 to 6.30 | CC(C)(C)CC(=O)Nc1nc2cc(C(F)(F)F)ccn2c1-c1ccc(F)cc1F [Compound 123, N-(3-(2,4-difluorophenyl)-7-(trifluoromethyl)imidazo[1,2-a]pyridin-2-yl)-3,3-dimethylbutanamide] |
| 5.52 to 6.30 | O=C(Cc1ccccc1)Nc1nc2cc(C(F)(F)F)ccn2c1-c1ccccc1 [Compound 101, 2-phenyl-N-(3-phenyl-7-(trifluoromethyl)imidazo[1,2-a]pyridin-2-yl)acetamide] |
| 5.52 to 6.30 | O=C(Cc1ccc(F)cc1)Nc1nc2ccc(F)cn2c1-c1ccc(C(F)(F)F)cc1 [Compound 126, N-(6-fluoro-3-(4-(trifluoromethyl)phenyl)imidazo[1,2-a]pyridin-2-yl)-2-(4-fluorophenyl)acetamide] |
| > 6.30 | O=C(CC1CCCC1)Nc1nc2ccccn2c1-c1ccc(C(F)(F)F)cc1 [Compound 224, 2-cyclopentyl-N-(3-(4-(trifluoromethyl)phenyl)imidazo[1,2-a]pyridin-2-yl)acetamide] |
| 5.52 to 6.30 | O=C(CCc1ccccc1)Nc1nc2ccc(F)cn2c1-c1ccc(F)cc1 [Compound 134, N-(6-fluoro-3-(4-fluorophenyl)imidazo[1,2-a]pyridin-2-yl)-3-phenylpropanamide] |
| 5.52 to 6.30 | CC(C)(C)C(O)C(=O)Nc1nc2ccc(F)cn2c1-c1ccc(C(F)(F)F)cc1 (stereo not shown) [Compound 181, N-(6-fluoro-3-(4-(trifluoromethyl)phenyl)imidazo[1,2-a]pyridin-2-yl)-2-hydroxy-3,3-dimethylbutanamide] |
| 5.52 to 6.30 | O=C(CC1CC1)Nc1nc2ccc(F)cn2c1-c1cccc(OC(F)(F)F)c1 [Compound 265, 2-cyclopropyl-N-(6-fluoro-3-(3-(trifluoromethoxy)phenyl)imidazo[1,2-a]pyridin-2-yl)acetamide] |
| > 6.30 | O=C(Nc1nc2ccc(F)cn2c1-c1ccc(OC(F)(F)F)cc1)C1CCCC1 [Compound 290, N-(6-fluoro-3-(4-(trifluoromethoxy)phenyl)imidazo[1,2-a]pyridin-2-yl)cyclopentanecarboxamide] |
| 5.52 to 6.30 | O=C(CCC(F)(F)F)Nc1nc2ccc(F)cn2c1-c1cccc(Cl)c1 [Compound 285, N-(3-(3-chlorophenyl)-6-fluoroimidazo[1,2-a]pyridin-2-yl)-4,4,4-trifluorobutanamide] |
| > 6.30 | O=C(Cc1ccccc1)Nc1nc2ccc(F)cn2c1-c1cccc(C(F)(F)F)c1 [Compound 165, N-(6-fluoro-3-(3-(trifluoromethyl)phenyl)imidazo[1,2-a]pyridin-2-yl)-2-phenylacetamide] |

| SMILES | pEC50 |
| --- | --- |
| CC(C)(C)OCC(=O)Nc1nc2ccc(F)cn2c1-c1ccc(OC(F)(F)F)cc1 [Compound 208, 2-tert-butoxy-N-(6-fluoro-3-(4-(trifluoromethoxy)phenyl)imidazo[1,2-a]pyridin-2-yl)acetamide] | 5.00 to 5.52 |

Same assay, conditions: SH-SY5Y native cell line, FLIPR assay (Table 3); read-out: SH-SY5Y EC50

| pEC50 | SMILES |
| --- | --- |
| 5.00 to 5.52 | Cc1cccc2nc(NC(=O)CC(C)(C)C)c(-c3nc4ccccc4s3)n12 [Compound 392, N-(3-(benzo[d]thiazol-2-yl)-5-methylimidazo[1,2-a]pyridin-2-yl)-3,3-dimethylbutanamide] |
| 5.52 to 6.30 | O=C(Cc1ccc(F)cc1)Nc1nc2ccc(F)cn2c1-c1nc2ccccc2s1 [Compound 379, N-(3-(benzo[d]thiazol-2-yl)-6-fluoroimidazo[1,2-a]pyridin-2-yl)-2-(4-fluorophenyl)acetamide] |
| 5.00 to 5.52 | CC(C)(C)CC(=O)Nc1nc2ccc(F)cn2c1-c1ccncc1 [Compound 351, N-(6-fluoro-3-(pyridin-4-yl)imidazo[1,2-a]pyridin-2-yl)-3,3-dimethylbutanamide] |
| 5.00 to 5.52 | Cc1ccc2nc(NC(=O)Cc3ccc(F)cc3)c(-c3nc4ccccc4s3)n2n1 [Compound 385, N-(3-(benzo[d]thiazol-2-yl)-6-methylimidazo[1,2-b]pyridazin-2-yl)-2-(4-fluorophenyl)acetamide] |
| > 6.30 | O=C(Cc1ccc(F)cc1)Nc1nc2ccc(F)cn2c1-c1cc(C(F)(F)F)ccn1 [Compound 410, N-(6-fluoro-3-(4-(trifluoromethyl)pyridin-2-yl)imidazo[1,2-a]pyridin-2-yl)-2-(4-fluorophenyl)acetamide] |
| 5.00 to 5.52 | Cc1ccc2nc(NC(=O)CC(C)(C)C)c(-c3nccs3)n2n1 [Compound 387, 3,3-dimethyl-N-(6-methyl-3-(thiazol-2-yl)imidazo[1,2-b]pyridazin-2-yl)butanamide] |
